These results are taken from the kinase profiling compilation of Christmann-Franck et al. (2016).

Common to all, as to experiment: KINOMEscan competition binding
Common to all, as to conditions: compound 10.0 µM

Assay [1] concerns the target ACVR2B (human) (UniProt Q13705).
In assay [2] the target is PLK4 (human) (UniProt O00444).
Assay [3] deals with CAMKK2 (human) (UniProt Q96RR4).
In assay [4] the target is DYRK1B (human) (UniProt Q9Y463).
In assay [5] the target is CSNK1D (human) (UniProt P48730).
Assay [6] has as its target BRSK2 (human) (UniProt Q8IWQ3).
Assay [7] has as its target AAK1 (human) (UniProt Q2M2I8).
The target in assay [8] is PIM3 (human) (UniProt Q86V86).
In assay [9] the target is MINK1 (human) (UniProt Q8N4C8).
Assay [10] concerns the target CLK2 (human) (UniProt P49760).
In assay [11] the target is RIPK2 (human) (UniProt O43353).
The target in assay [12] is ULK2 (human) (UniProt Q8IYT8).
The target in assay [13] is STK3 (human) (UniProt Q13188).
Assay [14] concerns FLT3 (human), P36888 [D835Y].
Assay [15] has as its target MAP3K7 (human) (UniProt O43318).
Assay [16] deals with BMPR1A (human) (UniProt P36894).
For assay [17], the target named is STK16 (human) (UniProt O75716).
For assay [18], the target named is CSNK1G1 (human) (UniProt Q9HCP0).
The test system of assay [19] is EGFR (human), P00533 [P753S; 747-752 del].
Assay [20] concerns the target TYK2 JH1 catalytic (human) (UniProt P29597).
The target of assay [21] is AURKC (human) (UniProt Q9UQB9).
In assay [22] the target is PKN1 (human) (UniProt Q16512).
The target in assay [23] is RPS6KA6 KD2 (human) (UniProt Q9UK32).
Assay [24] addresses TNK1 (human) (UniProt Q13470).
Assay [25] deals with RAF1 (human) (UniProt P04049).
Assay [26] concerns the target DDR1 (human) (UniProt Q08345).
Assay [27] deals with GSK3A (human) (UniProt P49840).

MINK1 (human), sequence (Q8N4C8 whole entry, looked up): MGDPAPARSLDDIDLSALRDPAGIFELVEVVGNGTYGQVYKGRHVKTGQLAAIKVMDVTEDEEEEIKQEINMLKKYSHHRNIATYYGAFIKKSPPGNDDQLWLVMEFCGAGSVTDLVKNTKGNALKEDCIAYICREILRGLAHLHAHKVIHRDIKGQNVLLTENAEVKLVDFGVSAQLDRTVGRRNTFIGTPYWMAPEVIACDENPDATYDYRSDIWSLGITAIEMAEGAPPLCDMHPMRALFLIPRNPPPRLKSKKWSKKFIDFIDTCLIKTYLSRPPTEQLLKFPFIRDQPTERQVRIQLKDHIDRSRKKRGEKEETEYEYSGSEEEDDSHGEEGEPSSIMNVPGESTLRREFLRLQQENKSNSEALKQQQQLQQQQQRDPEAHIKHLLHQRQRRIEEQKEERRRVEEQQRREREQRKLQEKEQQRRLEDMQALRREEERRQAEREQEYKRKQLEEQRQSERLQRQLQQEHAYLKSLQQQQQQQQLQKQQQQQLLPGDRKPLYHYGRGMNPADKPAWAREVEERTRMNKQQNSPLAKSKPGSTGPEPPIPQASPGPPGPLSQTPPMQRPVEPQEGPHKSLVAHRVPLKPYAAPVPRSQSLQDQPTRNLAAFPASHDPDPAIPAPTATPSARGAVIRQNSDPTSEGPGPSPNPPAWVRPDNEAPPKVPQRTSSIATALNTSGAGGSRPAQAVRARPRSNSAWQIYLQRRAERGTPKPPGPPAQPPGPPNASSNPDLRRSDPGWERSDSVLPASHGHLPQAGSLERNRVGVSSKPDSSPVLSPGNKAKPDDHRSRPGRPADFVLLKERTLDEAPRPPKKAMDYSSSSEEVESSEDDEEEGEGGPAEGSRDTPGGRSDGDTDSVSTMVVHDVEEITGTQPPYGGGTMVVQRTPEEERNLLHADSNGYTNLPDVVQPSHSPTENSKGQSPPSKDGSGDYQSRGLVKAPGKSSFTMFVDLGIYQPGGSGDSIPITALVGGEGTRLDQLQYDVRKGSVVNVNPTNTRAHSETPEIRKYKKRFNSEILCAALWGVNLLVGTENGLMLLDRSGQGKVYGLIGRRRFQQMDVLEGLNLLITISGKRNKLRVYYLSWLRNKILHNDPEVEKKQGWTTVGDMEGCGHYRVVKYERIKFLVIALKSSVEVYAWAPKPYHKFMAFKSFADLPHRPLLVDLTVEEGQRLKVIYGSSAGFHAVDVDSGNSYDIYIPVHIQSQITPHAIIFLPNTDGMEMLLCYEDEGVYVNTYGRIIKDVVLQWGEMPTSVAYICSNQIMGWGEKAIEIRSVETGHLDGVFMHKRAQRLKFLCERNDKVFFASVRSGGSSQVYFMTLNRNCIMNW
CSNK1G1 (human), sequence (Q9HCP0 whole entry, looked up): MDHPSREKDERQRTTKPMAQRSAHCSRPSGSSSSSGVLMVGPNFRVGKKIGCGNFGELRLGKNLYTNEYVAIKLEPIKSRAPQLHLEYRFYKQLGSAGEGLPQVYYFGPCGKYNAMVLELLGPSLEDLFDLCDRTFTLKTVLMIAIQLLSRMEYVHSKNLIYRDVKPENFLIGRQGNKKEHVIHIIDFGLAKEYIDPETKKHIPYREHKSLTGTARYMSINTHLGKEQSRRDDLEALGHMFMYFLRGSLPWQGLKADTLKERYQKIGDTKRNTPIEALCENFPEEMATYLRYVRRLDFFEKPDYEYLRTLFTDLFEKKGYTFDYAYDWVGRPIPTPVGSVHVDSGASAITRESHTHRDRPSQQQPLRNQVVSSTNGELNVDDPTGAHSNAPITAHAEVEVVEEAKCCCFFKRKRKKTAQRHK
CLK2 (human), sequence (P49760 whole entry, looked up): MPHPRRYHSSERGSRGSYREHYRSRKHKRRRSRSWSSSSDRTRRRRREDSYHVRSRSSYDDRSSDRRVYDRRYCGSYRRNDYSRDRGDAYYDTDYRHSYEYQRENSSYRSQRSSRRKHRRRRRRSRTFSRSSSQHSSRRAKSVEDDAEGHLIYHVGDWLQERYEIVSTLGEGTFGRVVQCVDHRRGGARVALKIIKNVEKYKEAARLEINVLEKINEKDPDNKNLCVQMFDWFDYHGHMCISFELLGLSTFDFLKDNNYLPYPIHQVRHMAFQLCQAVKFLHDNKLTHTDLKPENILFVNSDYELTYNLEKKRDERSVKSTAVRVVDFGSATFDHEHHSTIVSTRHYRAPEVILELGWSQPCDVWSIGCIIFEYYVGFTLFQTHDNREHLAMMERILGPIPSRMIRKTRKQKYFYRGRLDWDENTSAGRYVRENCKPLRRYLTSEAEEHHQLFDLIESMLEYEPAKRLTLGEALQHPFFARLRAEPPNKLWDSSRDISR
DYRK1B (human), sequence (Q9Y463 whole entry, looked up): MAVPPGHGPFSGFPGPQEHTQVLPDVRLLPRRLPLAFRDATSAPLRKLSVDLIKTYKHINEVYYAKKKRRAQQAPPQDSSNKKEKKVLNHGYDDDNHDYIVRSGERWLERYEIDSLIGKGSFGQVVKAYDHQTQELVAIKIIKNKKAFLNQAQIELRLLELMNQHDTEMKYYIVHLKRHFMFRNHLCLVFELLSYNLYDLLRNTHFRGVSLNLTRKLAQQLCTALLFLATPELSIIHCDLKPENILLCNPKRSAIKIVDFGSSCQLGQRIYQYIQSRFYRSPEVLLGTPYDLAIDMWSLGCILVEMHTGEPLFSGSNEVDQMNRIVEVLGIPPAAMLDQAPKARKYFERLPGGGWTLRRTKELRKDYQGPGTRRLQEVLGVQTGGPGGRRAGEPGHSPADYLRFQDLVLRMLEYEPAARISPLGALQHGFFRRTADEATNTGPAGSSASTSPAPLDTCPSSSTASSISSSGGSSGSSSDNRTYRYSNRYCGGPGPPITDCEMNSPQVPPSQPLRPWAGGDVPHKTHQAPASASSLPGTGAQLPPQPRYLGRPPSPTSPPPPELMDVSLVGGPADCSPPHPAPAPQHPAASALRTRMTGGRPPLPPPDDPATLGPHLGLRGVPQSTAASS
MAP3K7 (human), sequence (O43318 whole entry, looked up): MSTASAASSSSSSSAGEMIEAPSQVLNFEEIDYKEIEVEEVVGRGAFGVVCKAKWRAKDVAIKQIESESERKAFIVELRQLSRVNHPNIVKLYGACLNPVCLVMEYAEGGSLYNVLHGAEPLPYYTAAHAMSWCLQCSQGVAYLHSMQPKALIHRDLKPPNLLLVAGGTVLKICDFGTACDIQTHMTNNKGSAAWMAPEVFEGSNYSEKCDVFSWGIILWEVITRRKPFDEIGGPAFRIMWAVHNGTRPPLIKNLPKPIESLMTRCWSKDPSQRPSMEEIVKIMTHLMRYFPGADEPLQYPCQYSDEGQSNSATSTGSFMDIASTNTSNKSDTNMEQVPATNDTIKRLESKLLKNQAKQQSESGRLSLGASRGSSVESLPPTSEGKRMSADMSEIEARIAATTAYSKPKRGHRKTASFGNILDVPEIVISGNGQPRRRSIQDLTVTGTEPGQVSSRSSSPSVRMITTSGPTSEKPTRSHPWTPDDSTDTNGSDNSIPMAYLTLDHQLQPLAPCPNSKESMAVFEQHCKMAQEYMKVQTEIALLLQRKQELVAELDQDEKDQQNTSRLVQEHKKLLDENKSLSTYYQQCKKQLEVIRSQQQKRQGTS
AURKC (human), sequence (Q9UQB9 whole entry, looked up): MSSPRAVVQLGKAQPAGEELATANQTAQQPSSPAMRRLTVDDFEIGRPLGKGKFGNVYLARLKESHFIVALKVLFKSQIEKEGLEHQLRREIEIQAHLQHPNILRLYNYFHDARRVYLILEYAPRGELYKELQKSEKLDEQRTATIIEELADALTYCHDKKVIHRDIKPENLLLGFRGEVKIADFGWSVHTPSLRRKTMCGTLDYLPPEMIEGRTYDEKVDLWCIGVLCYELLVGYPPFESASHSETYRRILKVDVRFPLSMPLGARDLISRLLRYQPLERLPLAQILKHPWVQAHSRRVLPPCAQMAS
BRSK2 (human), sequence (Q8IWQ3 whole entry, looked up): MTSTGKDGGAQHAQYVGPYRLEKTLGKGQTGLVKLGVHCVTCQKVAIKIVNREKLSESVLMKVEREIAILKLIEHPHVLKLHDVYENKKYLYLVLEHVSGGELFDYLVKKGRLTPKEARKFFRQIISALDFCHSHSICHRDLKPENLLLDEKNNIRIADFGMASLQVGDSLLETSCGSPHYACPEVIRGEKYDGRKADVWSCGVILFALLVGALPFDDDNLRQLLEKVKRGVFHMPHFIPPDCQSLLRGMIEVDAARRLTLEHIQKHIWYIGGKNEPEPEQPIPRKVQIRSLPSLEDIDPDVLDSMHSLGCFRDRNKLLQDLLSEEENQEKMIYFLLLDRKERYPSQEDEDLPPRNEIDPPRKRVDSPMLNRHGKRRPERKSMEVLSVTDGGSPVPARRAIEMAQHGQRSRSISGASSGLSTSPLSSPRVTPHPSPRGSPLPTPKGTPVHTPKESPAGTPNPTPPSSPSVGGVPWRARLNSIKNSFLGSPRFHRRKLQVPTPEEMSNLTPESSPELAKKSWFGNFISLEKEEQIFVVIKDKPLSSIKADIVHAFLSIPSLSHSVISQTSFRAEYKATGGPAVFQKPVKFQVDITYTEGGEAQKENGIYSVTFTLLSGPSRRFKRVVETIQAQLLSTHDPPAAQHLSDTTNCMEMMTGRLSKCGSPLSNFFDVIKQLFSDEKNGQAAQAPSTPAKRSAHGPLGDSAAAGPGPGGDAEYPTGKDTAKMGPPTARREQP

As to `N=C1NC(=O)/C(=C/c2ccc(-c3ccc(F)cc3O)o2)S1`, the kinase still bound, per cent of control in assay [1] amounted to 16%; in assay [2] it was 4.6%; in assay [3], 22%; in assay [4], 3.6%; in assay [5], 24%; in [6], 23%. Further, the kinase still bound, per cent of control in assay [7] stood at 16%; in [8] it was 4.7%; in assay [9] it was 24%; in assay [10] it was 2.8%; in assay [11] it was 34%; in assay [12], 14%.

As for `CS(=O)(=O)Nc1ccc(-c2cc(/C=C3\SC(=N)NC3=O)c[nH]c2=O)cc1`, the kinase still bound, per cent of control turned out to be 12% in assay [1]; 15% in assay [13]; 24% in [2]; 31% in assay [3]; 3.2% in assay [4]; 20% in assay [14]. The kinase still bound, per cent of control was 7.6% in assay [7]; 6.1% in assay [8]; 15% in assay [9]; 18% in assay [15]; 8% in assay [16]; 5.2% in [10]. Also, the kinase still bound, per cent of control in assay [11] was determined as 11%.

`Nc1cccc(-c2cc(/C=C3\SC(=O)NC3=O)c[nH]c2=O)c1`: the kinase still bound, per cent of control in assay [1] was determined as 10%; in assay [17] it was 9.3%; in [3] it was 5.8%; in assay [4], 0.4%; in assay [5], 23%; in [18] it was 19%. Moreover, the kinase still bound, per cent of control in [7] worked out at 1.8%; in [8] it was 5.4%; in [19], 16%; in [20] it was 14%; in assay [10], 0%; in assay [21], 30%. This compound also gave a kinase still bound, per cent of control in assay [12] of 33%.

As to `N=C1NC(=O)/C(=C/c2ccc(-c3ccccc3O)o2)S1`, the kinase still bound, per cent of control is 15% in assay [1]; 3.2% in [2]; 18% in assay [3]; 1.8% in [4]; 29% in assay [6]; 8.2% in [7]. The kinase still bound, per cent of control in assay [8] worked out at 2.1%; in [9], 15%; in assay [10], 0.9%; in assay [12], 12%.

`CN1C(=O)[C@H]2CCC[C@H]2N(C2CCCC2)c2nc(Nc3ccc(C(N)=O)cc3)ncc21`: the kinase still bound, per cent of control in assay [17] is 4.8%; in [2], 1.6%; in [3], 33%; in assay [4] it was 2.8%; in assay [14] it was 2.6%; in assay [18], 23%. Further, the kinase still bound, per cent of control came out at 6.4% in assay [8]; 1.8% in [9]; 30% in assay [22]; 3.4% in assay [15]; 19% in assay [20]; 1% in [10]. Also, the kinase still bound, per cent of control in assay [23] is 13%; in assay [21] it was 2.2%; in assay [12] it was 17%; in [24], 2%.

As to `CSC1=NC(=O)/C(=C/c2c[nH]c(=O)c(-c3ccc(NS(C)(=O)=O)cc3)c2)S1`, the kinase still bound, per cent of control in assay [17] stood at 21%; in [2] it was 14%; in assay [3] it was 31%; in [4] it was 15%; in assay [7], 6.2%; in assay [8], 16%. The kinase still bound, per cent of control was 14% in assay [15], 9.5% in assay [10] and 13% in [12].

Turning to `N=C1NC(=O)/C(=C/c2ccc(-c3csc4ccccc34)o2)S1`, the kinase still bound, per cent of control came to 10% in assay [1]; 5.2% in assay [2]; 25% in [4]; 19% in assay [14]; 34% in assay [5]; 18% in assay [6]. Also, the kinase still bound, per cent of control came out at 33% in assay [25]; 5.4% in [8]; 15% in assay [10]; 18% in [23]; 33% in assay [26]; 31% in assay [24]. Further, in assay [27], the kinase still bound, per cent of control is 0%.

`CS(=O)(=O)Nc1ccc(-c2cncc(/C=C3\SC(=N)NC3=O)c2)cc1`: the kinase still bound, per cent of control in assay [1] worked out at 4.2%; in [13], 17%; in [2] it was 5.6%; in [4], 17%; in assay [14] it was 3.8%; in assay [5] it was 1.4%. The kinase still bound, per cent of control in [18] was 18%; in assay [6], 28%; in assay [7], 32%; in assay [9], 4.4%; in assay [15], 3.4%; in [16], 0.95%. Further, the kinase still bound, per cent of control in assay [21] is 16%; in [11], 1.4%; in assay [12], 29%; in assay [24] it was 28%; in assay [27], 13%.

With `N=C1NC(=O)/C(=C/c2c[nH]c(=O)c(-c3ccc(N4CCNCC4)nc3)c2)S1`, the kinase still bound, per cent of control in [4] amounted to 1%; in assay [14], 23%; in assay [7], 12%; in [8] it was 8%; in assay [9], 29%; in assay [10] it was 2.8%. Moreover, the kinase still bound, per cent of control in [11] was found to be 27%; in assay [12] it was 4.8%.
